{
  "source": "patent US8293479B2",
  "about": "“Use of parathyroid hormone-related protein(PTHRP) in the diagnosis and treatment of chronic lung disease and other pathologies” (Los Angeles Biomedical Research Institute at Harbor UCLA …, priority 2002, dated 2012)",
  "key": {"Myofibroblasts (P10s)": {"tested_on": "Myofibroblasts (P10s)", "assay": "PGJ2 treatment of P10 myofibroblasts, lipofibroblast marker expression", "format": "cell-based, rat", "settings": "PGJ2 30 µM, up to 144 hours (FIG. 13)"}, "[1]": {"tested_on": "fetal rat lung fibroblasts (FRLF)", "assay": "PGJ2 treatment of fetal rat lung fibroblasts, spontaneous and hyperoxia-induced lipo-to-myofibroblast transdifferentiation", "format": "cell-based", "settings": "PGJ2 30 µM", "protocol": "e18 (pre-term) and e21 (near term) fetal rat lung fibroblasts were maintained in DMEM+10% fetal bovine serum in 21% (control) or 95% (experimental) O2+5% CO2 in sealed modular incubator chambers (Billups-Rothenberg, Del Mar, Calif.) kept at 37° C. in standard incubators. Modular incubators were flushed for 3 min at a flow rate of 10 liters/min with either 21 or 95% O2+5% CO2 with remainder of the gas mixture as N2. Modular incubators were then sealed and then put in standard cell culture incubators. When confluent, cells were passaged and allowed to grow in 21% O2 for 24 h. Subsequently, control cells were maintained in 21% O2+5% CO2 and experimental cells in 95% O2+5% CO2 in modular incubators as described above This was continued up to passage 5. Passage 1 and 5 cells were studied for the expression of various lipogenic and myogenic markers by reverse transcriptase-polymerase chain reaction (RT-PCR).\nRT PCR probes used included-Rat Parathyroid Hormone related Protein Receptor (PTHrPR): 5′ CTCTTCTTGACTGTTGTCGCTGGT (SEQ ID NO:14) and 3′[…] […] Rat alpha Smooth Muscle Actin (SMA). RT-PCR was carried out for 2 hours at 37° C. in 50 mM Tris buffer, pH 8.3 containing 75 mM KCl, 3 mM MgCl2 and 10 mM DTT. […] The cDNA is adjusted to equal concentrations as assessed by the PCR of the constitutively expressed gene, GAPDH (rat lung GAPDH). […]"}, "[2]": {"tested_on": "fetal rat lung type II cells", "assay": "Co-culture of fetal rat type II cells with PGJ2-pretreated myofibroblasts, cell count and RT-PCR for Surfactant Protein B", "format": "cell-based", "protocol": "FIGS. 14A and 14B show the effect of lipofibroblasts and myofibroblasts on fetal rat type II cell growth and differentiation. Fetal type II cells were co-cultured with lipofibroblasts, myofibroblasts or myofibroblasts pretreated with PGJ2. Cell growth was determined by cell count and differentiation was determined by RT-PCR for Surfactant Protein B. Note that in the presence of lipofibroblasts or myofibroblasts treated with PGJ2 that type II cells grow (see Figure on left) and differentiate (Figure on right) with time in culture. […] Day 1 v subsequent day in culture, *, p<0.05; **; p<0.01; ***,p<0.0001 by Analysis of Variance.\nIn order to link the process of fibroblast transdifferentiation to alveolarization, we recombined day 19 fetal rat lung type II cells with either P1 lipofibroblasts, P10 myofibroblasts, or P10 myofibroblasts pretreated with PGJ2; PGJ2 induces the transdifferentiation of myofibroblasts to lipofibroblasts (Hu et al. (1995) Proc. Natl. Acad. Sci. USA 92:9856-9860)."}, "[3]": {"tested_on": "E19 fetal rat lung fibroblasts", "assay": "PTHrP treatment of fetal rat lung fibroblasts, ADRP mRNA by competitive RT-PCR", "format": "cell-based", "settings": "0.5 µM PTHrP (printed 0.5:M), 15 hours, normalized to GAPDH"}, "[4]": {"tested_on": "E21 fetal rat lung lipofibroblasts", "assay": "PTHrP treatment of serially passaged (P4) transdifferentiating lipofibroblasts, marker expression by competitive RT-PCR", "format": "cell-based", "settings": "PTHrP 0.5 µM, compared with P1"}, "d18 FRLFs": {"tested_on": "d18 FRLFs", "assay": "Antioxidant pretreatment of FRLFs exposed to hyperoxia, ADRP mRNA expression", "format": "cell-based, rat", "settings": "95% O2 for 24 h, one hour antioxidant pretreatment", "description": "RT-PCR was carried out for 2 hours at 37° C. in 50 mM Tris buffer, pH 8.3 containing 75 mM KCl, 3 mM MgCl2 and 10 mM DTT. The total volume of incubation was 20 μl and it contained 0.5 mM each of dNTP, 20 U of RNasin, 25 pmol of oligo(dt) primer and 200 U of Moroney murine leukemia virus reverse transcriptase. […] The cDNA is adjusted to equal concentrations as assessed by the PCR of the constitutively expressed gene, GAPDH (rat lung GAPDH). […]"}},
  "data": [
    {"compound": "CCCCC[C@H](O)/C=C/[C@H]1C(=O)C=C[C@@H]1C/C=C\\CCCC(=O)O", "note": "[PGJ2, prostaglandin J2]", "values": [
      {"measurement": "expression of ADRP by P10 myofibroblasts", "setting": "Myofibroblasts (P10s)", "value": "increased the expression of ADRP"},
      {"measurement": "hyperoxia induced lipo-to-myofibroblast transdifferentiation", "setting": "[1]; 24 h treatment", "value": "partially blunts"},
      {"measurement": "spontaneous decrease in ADRP mRNA expression", "setting": "[1]; up to 72 h in culture", "value": "attenuated"},
      {"measurement": "Surfactant Protein-B expression by type II cells", "setting": "[2]; type II cells co-cultured with PGJ2-treated P10 myofibroblasts", "value": "comparable to that by lipofibroblasts"},
      {"measurement": "type II cell proliferation (cell number)", "setting": "[2]; type II cells co-cultured with PGJ2 pre-treated P10 myofibroblasts, 5 day culture", "value": "comparable to that of primary lipofibroblasts"}
    ]},
    {"compound": "PTHrP: Parathyroid Hormone-related Protein; PTHrP (1-34) and PTHrP (7-34) amide were obtained from Bachem", "values": [
      {"measurement": "ADRP expression", "setting": "[3]", "value": "inducing ADRP expression"},
      {"measurement": "alpha SMA expression", "setting": "[4]; P4 lipofibroblasts, 24 hour treatment", "value": "decreased alpha SMA expression down to levels comparable to those observed for P1s"},
      {"measurement": "PTHrP receptor expression (printed in b310 as PTHrP expression)", "setting": "[4]; lipofibroblasts treated at Passage 4 for 24 hours", "value": "increase in PTHrP expression up to a level comparable to that of P1s"}
    ]},
    {"compound": "superoxide dismutase", "values": [
      {"measurement": "prevention of hyperoxia-induced decrease in ADRP mRNA expression", "setting": "d18 FRLFs", "value": "ineffective"}
    ]}
  ]
}
